The values that follow come from patent US11225484B2, “Substituted octahydropyrrolo[3,4-b]pyrroles as antagonists of the muscarinic acetylcholine receptor M4” (Vanderbilt University, priority 2017, dated 2022).

In one assay the test system is locomotor activity. As to conditions: M4 knockout mice, but not the other four mAChR subtypes; cited from earlier work.
Assay [1] deals with catalepsy induced by the DA receptor antagonist haloperidol. In words: haloperidol-induced catalepsy. The format is in vivo, mice. An excerpt:
Furthermore, haloperidol-induced catalepsy, a model of parkinsonian motor disability, is reduced in M4 knockout mice as compared to wild-type controls. […] The reversal by scopolamine was uncommonly robust and more pronounced than we observe with agents targeting a number of other targets being evaluated for potential antiparkinsonian effects, including metabotropic glutamate (mGlu) receptors mGlu4 or mGlu5, A2A adenosine receptors, and NMDA receptors. […] Taken together with the extensive studies of M4 modulation of basal ganglia and motor function, these studies provide compelling evidence that M4 is the dominant mAChR subtype involved in the antiparkinsonian effects of non-selective mAChR antagonists and provide support for discovery and development of selective M4 antagonists for treatment of neurodegenerative disease such as PD, dystonia, tardive dyskinesia and other movement disorders.

`CN1[C@@H]2C[C@@H](OC(=O)[C@H](CO)c3ccccc3)C[C@H]1[C@@H]1O[C@@H]12` [scopolamine]: in the assay with locomotor activity, the locomotor-activating effects result is “dramatically reduced”. In addition, the “reduction of haloperidol-induced catalepsy” value in assay [1] (M4 KO mice) is “ineffective in reducing catalepsy”. The “reversal of haloperidol-induced catalepsy” value in assay [1] (WT mice) is “completely reversed”.
